Data on ten compounds can be found in ChEMBL document CHEMBL4422622, “Identification of Mineralocorticoid Receptor Modulators with Low Impact on Electrolyte Homeostasis but Maintained Organ Protection” (J Med Chem, 2019).

One data set addresses T1, Glucocorticoid receptor (Homo sapiens, UniProt P04150).
T1 sequence (P04150 whole entry): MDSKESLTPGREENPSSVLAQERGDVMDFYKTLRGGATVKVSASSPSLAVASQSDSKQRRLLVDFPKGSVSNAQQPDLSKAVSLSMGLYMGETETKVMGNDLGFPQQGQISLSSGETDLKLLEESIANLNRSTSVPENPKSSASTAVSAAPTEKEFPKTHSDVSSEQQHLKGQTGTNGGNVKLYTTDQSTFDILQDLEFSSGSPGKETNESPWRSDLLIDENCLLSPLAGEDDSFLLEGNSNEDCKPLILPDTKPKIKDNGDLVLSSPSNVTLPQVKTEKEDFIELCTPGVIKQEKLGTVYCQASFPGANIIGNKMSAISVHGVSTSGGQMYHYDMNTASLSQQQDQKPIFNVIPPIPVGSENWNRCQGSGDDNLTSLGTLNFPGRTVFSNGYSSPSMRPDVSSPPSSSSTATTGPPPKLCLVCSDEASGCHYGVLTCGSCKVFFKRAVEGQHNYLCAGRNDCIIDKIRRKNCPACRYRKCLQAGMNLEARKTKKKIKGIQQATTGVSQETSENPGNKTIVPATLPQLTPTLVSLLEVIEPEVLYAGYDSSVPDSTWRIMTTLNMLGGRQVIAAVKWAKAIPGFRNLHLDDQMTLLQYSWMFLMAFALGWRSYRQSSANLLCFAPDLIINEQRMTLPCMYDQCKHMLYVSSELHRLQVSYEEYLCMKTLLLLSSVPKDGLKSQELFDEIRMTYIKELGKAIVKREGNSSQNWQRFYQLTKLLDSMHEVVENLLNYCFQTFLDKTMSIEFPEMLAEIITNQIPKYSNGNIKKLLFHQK

A short description of data set [1]: Kinetic solubility of compound at pH 7.4 after 24 hrs by shake-flask assay. To be noted: buffer, read-out: -log(solubility) (converted). In kind it is physicochemical.
The next data set addresses T2, Progesterone receptor (Homo sapiens, UniProt P06401).
T2 sequence (P06401 whole entry): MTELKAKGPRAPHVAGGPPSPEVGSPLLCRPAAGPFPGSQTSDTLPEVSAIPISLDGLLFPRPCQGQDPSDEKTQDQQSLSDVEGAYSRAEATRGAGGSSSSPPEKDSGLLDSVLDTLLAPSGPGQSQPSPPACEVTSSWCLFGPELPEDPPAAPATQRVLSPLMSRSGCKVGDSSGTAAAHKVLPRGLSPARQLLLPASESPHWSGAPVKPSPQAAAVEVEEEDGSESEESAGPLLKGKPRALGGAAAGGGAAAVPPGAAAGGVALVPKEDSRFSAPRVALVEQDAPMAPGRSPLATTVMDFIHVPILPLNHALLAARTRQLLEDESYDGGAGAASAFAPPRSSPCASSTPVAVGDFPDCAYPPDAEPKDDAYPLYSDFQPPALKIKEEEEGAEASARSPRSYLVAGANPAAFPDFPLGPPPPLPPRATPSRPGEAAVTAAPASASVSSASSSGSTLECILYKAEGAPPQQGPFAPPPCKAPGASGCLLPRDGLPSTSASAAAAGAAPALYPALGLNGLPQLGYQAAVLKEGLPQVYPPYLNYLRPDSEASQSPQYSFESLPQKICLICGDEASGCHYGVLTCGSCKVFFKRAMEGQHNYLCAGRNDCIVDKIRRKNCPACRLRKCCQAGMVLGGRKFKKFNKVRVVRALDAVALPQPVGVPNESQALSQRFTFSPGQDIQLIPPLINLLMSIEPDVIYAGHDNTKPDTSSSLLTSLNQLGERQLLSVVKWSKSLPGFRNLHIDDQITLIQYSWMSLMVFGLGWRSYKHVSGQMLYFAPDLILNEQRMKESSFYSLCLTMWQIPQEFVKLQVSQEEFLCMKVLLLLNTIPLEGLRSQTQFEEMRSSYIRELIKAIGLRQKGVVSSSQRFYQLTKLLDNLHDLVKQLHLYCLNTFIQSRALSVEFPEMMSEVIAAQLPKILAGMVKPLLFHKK
As to the kind of experiment: Binding affinity to recombinant human progesterone receptor LBD by fluormone PL red-fluorescence polarization assay.

For data set [2], the target named is T3, Mineralocorticoid receptor (Homo sapiens, UniProt P08235).
T3 sequence (P08235 whole entry): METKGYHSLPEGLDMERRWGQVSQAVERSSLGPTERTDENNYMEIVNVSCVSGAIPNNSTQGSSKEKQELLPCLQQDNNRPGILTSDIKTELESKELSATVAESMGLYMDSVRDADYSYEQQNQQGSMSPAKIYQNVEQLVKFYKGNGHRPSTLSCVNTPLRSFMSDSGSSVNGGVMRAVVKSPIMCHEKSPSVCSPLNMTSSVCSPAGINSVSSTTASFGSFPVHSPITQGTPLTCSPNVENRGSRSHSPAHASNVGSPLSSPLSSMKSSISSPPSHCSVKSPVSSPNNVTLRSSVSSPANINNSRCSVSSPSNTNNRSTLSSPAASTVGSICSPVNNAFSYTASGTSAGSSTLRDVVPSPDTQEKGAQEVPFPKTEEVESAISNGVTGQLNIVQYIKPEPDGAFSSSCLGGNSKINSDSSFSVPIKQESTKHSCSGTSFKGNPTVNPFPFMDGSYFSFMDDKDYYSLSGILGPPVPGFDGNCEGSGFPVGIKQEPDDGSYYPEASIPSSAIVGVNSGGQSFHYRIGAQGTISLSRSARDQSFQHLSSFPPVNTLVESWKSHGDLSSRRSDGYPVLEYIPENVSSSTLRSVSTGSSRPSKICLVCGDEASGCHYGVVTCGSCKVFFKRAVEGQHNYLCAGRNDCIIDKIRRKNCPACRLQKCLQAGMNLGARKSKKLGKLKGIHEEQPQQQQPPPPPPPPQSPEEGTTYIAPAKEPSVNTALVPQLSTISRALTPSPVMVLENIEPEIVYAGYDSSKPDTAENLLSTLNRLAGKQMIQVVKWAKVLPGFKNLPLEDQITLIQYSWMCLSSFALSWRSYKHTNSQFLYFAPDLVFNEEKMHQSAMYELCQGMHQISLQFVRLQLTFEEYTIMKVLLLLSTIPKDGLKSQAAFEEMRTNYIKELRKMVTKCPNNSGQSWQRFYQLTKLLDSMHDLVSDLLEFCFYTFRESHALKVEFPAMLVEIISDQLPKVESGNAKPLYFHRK
Description: Displacement of [3H]-aldosterone to human mineralocorticoid receptor LBD by radiometric binding assay

A short description of data set [3]: Octanol-water partitioning co-efficient, log D of the compound at pH 7.4 by LC/MS/MS analysis. Type of data set: physicochemical.
In data set [4] the target is T3, Mineralocorticoid receptor. The source holds these as a separate data set.
Description: Antagonist activity at gal4-fused human mineralocorticoid receptor LBD expressed in UAS-MR-bla HEK293 cells by luciferase reporter gene assay
Data set [5] can be described thus: Intrinsic clearance in human liver microsomes at 1 uM measured up to 30 mins in presence of NADPH by LC-MS/MS analysis. In kind it is ADME, Microsome. To be noted: read-out: CLH.
A short description of data set [6]: Clearance in Han Wistar rat at 1.2 mg/kg, iv by LC-MS/MS analysis. In kind it is ADME, organism-based. Particulars: in vivo.
Data set [7] in a line: Oral bioavailability in Han Wistar rat at 2.1 mg/kg by LC-MS/MS analysis. Particulars: in vivo. Type of data set: ADME, organism-based.
A short description of data set [8]: Volume of distribution at steady state in Han Wistar rat at 1.2 mg/kg, iv by LC-MS/MS analysis. Type of data set: ADME, organism-based. To be noted: in vivo, read-out: Vdss.
The subject of a further data set is Rattus norvegicus. As to the kind of experiment: Induction of hyperkalemia in Sprague-Dawley rat fed on low salt diet for 72 hrs assessed as increase in Na+/K+ ratio in urine administered via oral gavage after 8 hrs. Type of data set: organism-based. To be noted: in vivo.
Data set [9] can be described thus: Terminal half life in Han Wistar rat at 1.2 mg/kg, iv by LC-MS/MS analysis. In kind it is ADME, organism-based. To be noted: in vivo, read-out: beta t1/2 (converted).
Data set [10] in a line: Intrinsic clearance in Han Wistar rat hepatocytes assessed per million cells at 1 uM after 4 hrs by LC/MS/MS analysis. In kind it is ADME, cell-based, Hepatocyte. To be noted: read-out: CLH.
Data set [11] can be described thus: Fraction unbound in Han Wistar rat plasma at 1 uM after 4 hrs by LC/MS/MS analysis. Type of data set: ADME, cell-free.

Each structure is given as a SMILES string. pIC50, pKi: −log10 of the molar value. In brackets after ≈: the same amount, converted by molar mass.

Description for Glucocorticoid receptor: Binding affinity to recombinant human GR LBD by fluormone GS red-fluorescence polarization assay

In the case of `C[C@H]1CCc2cc(F)ccc2N1C(=O)c1ccc2c(c1)NC(=O)CO2`, the pKi on Glucocorticoid receptor was 5.70; on Progesterone receptor, less than 4.30; in data set [2] it was 6.90. Besides, in [1], the solubility kinetic at 24 h was 126 µM (≈ 42.8 µg/mL). The compound also returned a logD in data set [3] of 2.9. Besides, the pIC50 in data set [4] is 6.10. In data set [5], the microsomal CLint at 1 µM worked out at 190 µL/min/mg.

Turning to `C[C@@H]1COc2cc(F)ccc2N1C(=O)c1ccc2c(c1)NC(=O)CO2`, on Progesterone receptor, the pKi was less than 4.30. In data set [3], this compound came in with a logD of 2.7. In [5], the microsomal CLint at 1 µM was found to be 11 µL/min/mg.

For `CC(C)C[C@H]1COc2cc(F)ccc2N1C(=O)c1ccc2c(c1)NC(=O)CC2`, the figures for the pKi (on Glucocorticoid receptor; on Progesterone receptor; in data set [2]) were 4.90, less than 4.30 and 6.00, respectively. Also, the solubility kinetic at 24 h in [1] was 79.4 µM (≈ 30.4 µg/mL). This compound displayed a logD in data set [3] of 3.6. Further, the pIC50 in data set [4] was 5.60. For the same compound, the microsomal CLint at 1 µM in data set [5] is more than 300 µL/min/mg.

With `C[C@H]1COc2cccnc2N1C(=O)c1ccc2c(c1)NC(=O)CO2`, the pKi on Glucocorticoid receptor is less than 4.80; on Progesterone receptor, less than 4.30; in [2] it was 5.90. The solubility kinetic at 24 h in [1] is 1000 µM (≈ 325 µg/mL). In data set [3], the logD worked out at 1.3. The pIC50 in [4] was less than 5.00. Besides, the microsomal CLint at 1 µM in data set [5] is 6 µL/min/mg.

Regarding `O=C1COc2ccc(C(=O)N3c4ccc(F)cc4OC[C@@H]3CCO)cc2N1`, the pKi on Glucocorticoid receptor was 5.90; at Progesterone receptor it was 4.60; in [2] it was 6.70. Also, the solubility kinetic at 24 h in [1] was 1000 µM (≈ 372 µg/mL). The same compound returned a log distribution coefficient (logD) in data set [3] of 1.8. In data set [4], the pIC50 is 6.30. For the same compound, in [5], the microsomal CLint at 1 µM came to 15 µL/min/mg.

With `O=C1COc2ccc(C(=O)N3c4ccc(Cl)cc4C[C@@H]3CCO)cc2N1`, the results for the pKi (on Glucocorticoid receptor; at Progesterone receptor; in [2]) were less than 4.80, less than 4.30 and less than 5.00, respectively. The solubility kinetic at 24 h in [1] was 2 µM (≈ 0.744 µg/mL). For the same compound, in [3], the logD is 3.7. The pIC50 in [4] was less than 5.00. For the same compound, in data set [5], the microsomal CLint at 1 µM stood at 40 µL/min/mg.

`CC(C)C[C@H]1COc2cc(F)ccc2N1C(=O)c1ccc2c(c1)NC(=O)CO2`: the pKi is 7.30 on Glucocorticoid receptor, 5.60 at Progesterone receptor and 8.70 in data set [2]. Also, in [1], the solubility kinetic at 24 h was 39.8 µM (≈ 15.3 µg/mL). The compound also registered a logD in data set [3] of 3.8. In data set [4], this compound gave a pIC50 of 7.20. Moreover, the microsomal CLint at 1 µM in [5] is more than 300 µL/min/mg.

Consider `O=C(O)C[C@H]1COc2cc(Cl)ccc2N1C(=O)c1ccc2c(c1)NC(=O)CO2`, for which the negative logarithm of the Ki (pKi) was 5.30 at Glucocorticoid receptor, less than 4.30 at Progesterone receptor and 6.80 in data set [2]. For the same compound, in [1], the solubility kinetic at 24 h is 1000 µM (≈ 403 µg/mL). In addition, the logD in data set [3] is -0.5. In data set [4], this compound showed a pIC50 of less than 5.00. Moreover, the microsomal CLint at 1 µM in data set [5] was less than 3 µL/min/mg.

On to `NCC[C@H]1COc2cc(F)ccc2N1C(=O)c1ccc2c(c1)NC(=O)CO2`, for which the pKi on Glucocorticoid receptor is less than 4.80; at Progesterone receptor, less than 4.30; in data set [2] it was less than 5.00. For the same compound, in [1], the solubility kinetic at 24 h was 50.1 µM (≈ 18.6 µg/mL). In data set [3], this compound showed a logD of 0.2. The pIC50 in [4] is less than 5.00. Further, in data set [5], the microsomal CLint at 1 µM came out at 12 µL/min/mg.

Take `COC(=O)[C@@H]1CC2=CC(=O)CC[C@]2(C)[C@@]23O[C@@H]2C[C@@]2(C)[C@@H](CC[C@@]24CCC(=O)O4)[C@H]13` [EPLERENONE]: the clearance in [6] is 17 mL/min/kg. The same compound had a bioavailability in data set [7] of 16%. In data set [8], the Vd was 1 L/kg. In addition, in the data set with Rattus norvegicus, the Activity result is “Toxic”. Besides, the solubility kinetic at 24 h in data set [1] was 1000 µM (≈ 414 µg/mL). The logD in [3] is 0.8. In addition, the half-life in data set [9] was 1.3 h. Also, the microsomal CLint at 1 µM in data set [5] is 9 µL/min/mg. Besides, the hepatocyte CLint at 1 µM in data set [10] amounted to 5 µL/min/1e6 cells. The compound also gave a fraction unbound at 4 h, 1 µM in data set [11] of 0.76.
